Data as given in patent US9693997B2, “Antiviral compounds” (priority 2013, dated 2017).
Where a name gives a salt, the structure may show the parent alone.

Legend:
[1] = tested on: pseudotyped VSV G particles (VSVpp) in Huh7-high CD81 cells; test: microbe, parasite or virus in culture; type: cell-based, vesicular stomatitis virus; conditions: Vesicular stomatitis virus, 72 h, read-out: VSVpp (EC50, μM)
[2] = tested on: Pseudotyped HCV GT1b particles (HCVpp), entry into Huh7-high CD81 cells; test: microbe, parasite or virus in culture; type: cell-based, HCV GT1b Con1 strain; conditions: Hepatitis C virus, GT1B, 72 h, read-out: HCVpp GT-1b (EC50, μM)

Row | SMILES | EC50 [1] | EC50 [2]
1 | CC(C)(C)NS(=O)(=O)c1ccc(-c2c(Cl)cc(Nc3n[nH]c(N)n3)cc2Cl)cc1 [Compound 164, 4′-(5-amino-1H-1,2,4-triazol-3-ylamino)-N-tert-butyl-2′,6′-dichlorobiphenyl-4-sulfonamide] | 7.06 µM | 0.004 µM
2 | CC(C)(NS(=O)(=O)c1ccc(-c2c(Cl)cc(Nc3n[nH]c(N)n3)cc2C(F)(F)F)cc1)C(F)(F)F [Compound 165, 4′-(5-amino-1H-1,2,4-triazol-3-ylamino)-2′-chloro-N-(1,1,1-trifluoro-2-methylpropan-2-yl)-6′-(trifluoromethyl)biphenyl-4-sulfonamide] | > 10 µM | 0.009 µM
3 | COc1cc(-c2c(Cl)cc(Nc3n[nH]c(N)n3)cc2C(F)(F)F)ccc1S(=O)(=O)N[C@H]1CC[C@H](O)CC1 [Compound 167, 4′-(5-amino-1H-1,2,4-triazol-3-ylamino)-2′-chloro-N-(trans-4-hydroxycyclohexyl)-3-methoxy-6′-(trifluoromethyl)biphenyl-4-sulfonamide] | > 10 µM | 0.009 µM
4 | Nc1nc(Nc2cc(Cl)c(-c3ccc(S(=O)(=O)NC4CC4)cc3)c(C(F)(F)F)c2)n[nH]1 [Compound 169, 4′-(5-amino-1H-1,2,4-triazol-3-ylamino)-2′-chloro-N-cyclopropyl-6′-(trifluoromethyl)biphenyl-4-sulfonamide] | 3.55 µM | 0.011 µM
5 | Nc1nc(Nc2cc(Cl)c(-c3ccc(S(N)(=O)=O)cc3)c(C(F)(F)F)c2)n[nH]1 [Compound 171, 4′-(5-amino-1H-1,2,4-triazol-3-ylamino)-2′-chloro-6′-(trifluoromethyl)biphenyl-4-sulfonamide] | 5.23 µM | 0.028 µM
6 | Nc1nc(Nc2cc(Cl)c(-c3ccc(S(=O)(=O)NC4CC(O)C4)cc3)c(C(F)(F)F)c2)n[nH]1 (stereo not shown) [Compound 172, 4′-(5-amino-1H-1,2,4-triazol-3-ylamino)-2′-chloro-N-(3-hydroxycyclobutyl)-6′-(trifluoromethyl)biphenyl-4-sulfonamide] | 45.1 µM | 0.032 µM
7 | Nc1nc(Nc2cc(Cl)c(-c3ccc(S(=O)(=O)N[C@H]4C[C@@H](O)C4)cc3)c(C(F)(F)F)c2)n[nH]1 [Compound 174, 4′-(5-amino-1H-1,2,4-triazol-3-ylamino)-2′-chloro-N-(cis-3-hydroxycyclobutyl)-6′-(trifluoromethyl)biphenyl-4-sulfonamide] | > 10 µM | 0.038 µM
8 | COc1ccc(-c2c(Cl)cc(Nc3n[nH]c(N)n3)cc2C(F)(F)F)cc1S(=O)(=O)NCCO [Compound 175, 4′-(5-amino-1H-1,2,4-triazol-3-ylamino)-2′-chloro-N-(2-hydroxyethyl)-4-methoxy-6′-(trifluoromethyl)biphenyl-3-sulfonamide] | > 10 µM | 0.018 µM
9 | CC(C)(C)NS(=O)(=O)c1cccc(-c2c(Cl)cc(Nc3n[nH]c(N)n3)cc2C(F)(F)F)c1 [Compound 176, 4′-(5-amino-1H-1,2,4-triazol-3-ylamino)-N-tert-butyl-2′-chloro-6′-(trifluoromethyl)biphenyl-3-sulfonamide] | 9.6 µM | 0.019 µM
10 | COc1ccc(-c2c(Cl)cc(Nc3n[nH]c(N)n3)cc2C(F)(F)F)cc1S(=O)(=O)N1CCNCC1 [Compound 182, N3-(2-chloro-4′-methoxy-3′-(piperazin-1-ylsulfonyl)-6-(trifluoromethyl)biphenyl-4-yl)-1H-1,2,4-triazole-3,5-diamine hydrochloride] | > 10 µM | 0.044 µM
11 | Nc1nc(Nc2cc(Cl)c(-c3ccc(S(=O)(=O)N4CCC(F)(F)CC4)cc3)c(C(F)(F)F)c2)n[nH]1 [Compound 183, N3-(2-chloro-4′-(4,4-difluoropiperidin-1-ylsulfonyl)-6-(trifluoromethyl)biphenyl-4-yl)-1H-1,2,4-triazole-3,5-diamine] | 8.19 µM | 0.048 µM
12 | Nc1nc(Nc2cc(Cl)c(-c3ccc(S(=O)(=O)C4CC4)cc3)c(C(F)(F)F)c2)n[nH]1 [Compound 188, N3-(2-chloro-4′-(cyclopropylsulfonyl)-6-(trifluoromethyl)biphenyl-4-yl)-1H-1,2,4-triazole-3,5-diamine] | 0.09 µM | 0.089 µM
13 | CNC(=O)c1ccc(-c2c(Cl)cc(Nc3n[nH]c(N)n3)cc2C(F)(F)F)cc1 [Compound 189, 4′-(5-amino-1H-1,2,4-triazol-3-ylamino)-2′-chloro-N-methyl-6′-(trifluoromethyl)biphenyl-4-carboxamide] | 36.8 µM | 0.08 µM
14 | COc1ccc(-c2c(Cl)cc(Nc3n[nH]c(N)n3)cc2C(F)(F)F)cc1S(=O)(=O)N[C@H]1CC[C@H](O)CC1 [Compound 190, 4′-(5-amino-1H-1,2,4-triazol-3-ylamino)-2′-chloro-N-(trans-4-hydroxycyclohexyl)-4-methoxy-6′-(trifluoromethyl)biphenyl-3-sulfonamide] | 56.1 µM | 0.046 µM
15 | Nc1nc(Nc2cc(Cl)c(-c3ccc(S(=O)(=O)N4CC(O)C4)cc3)c(C(F)(F)F)c2)n[nH]1 [Compound 191, 1-(4′-(5-amino-1H-1,2,4-triazol-3-ylamino)-2′-chloro-6′-(trifluoromethyl)biphenyl-4-ylsulfonyl)azetidin-3-ol] | 25 µM | 0.069 µM
16 | Nc1nc(Nc2cc(Cl)c(-c3cccc(S(=O)(=O)N4CCCC4)c3)c(C(F)(F)F)c2)n[nH]1 [Compound 192, N3-(2-chloro-3′-(pyrrolidin-1-ylsulfonyl)-6-(trifluoromethyl)biphenyl-4-yl)-1H-1,2,4-triazole-3,5-diamine] | 17.2 µM | 0.084 µM
17 | CC(C)(C)NS(=O)(=O)c1cc(-c2c(Cl)cc(Nc3n[nH]c(N)n3)cc2C(F)(F)F)ccc1OC(F)(F)F [Compound 193, 4′-(5-amino-1H-1,2,4-triazol-3-ylamino)-N-tert-butyl-2′-chloro-4-(trifluoromethoxy)-6′-(trifluoromethyl)biphenyl-3-sulfonamide] | 4.97 µM | 0.075 µM
18 | Nc1nc(Nc2cc(Cl)c(-c3ccc(S(=O)(=O)N4CCC(O)CC4)cc3)c(C(F)(F)F)c2)n[nH]1 [Compound 194, 1-(4′-(5-amino-1H-1,2,4-triazol-3-ylamino)-2′-chloro-6′-(trifluoromethyl)biphenyl-4-ylsulfonyl)piperidin-4-ol] | 22.8 µM | 0.115 µM
19 | CS(=O)(=O)c1cccc(-c2c(Cl)cc(Nc3n[nH]c(N)n3)cc2C(F)(F)F)c1 [Compound 195, N3-(2-chloro-3′-(methylsulfonyl)-6-(trifluoromethyl)biphenyl-4-yl)-1H-1,2,4-triazole-3,5-diamine] | 39.7 µM | 0.212 µM
20 | CN(C(C)(C)C)S(=O)(=O)c1cccc(-c2c(Cl)cc(Nc3n[nH]c(N)n3)cc2C(F)(F)F)c1 [Compound 196, 4′-(5-amino-1H-1,2,4-triazol-3-ylamino)-N-tert-butyl-2′-chloro-N-methyl-6′-(trifluoromethyl)biphenyl-3-sulfonamide] | > 10 µM | 0.126 µM
21 | Nc1nc(Nc2cc(Cl)c(-c3cccc(S(N)(=O)=O)c3)c(C(F)(F)F)c2)n[nH]1 [Compound 197, 4′-(5-amino-1H-1,2,4-triazol-3-ylamino)-2′-chloro-6′-(trifluoromethyl)biphenyl-3-sulfonamide 2,2,2-trifluoroacetate] | > 10 µM | 0.249 µM
22 | CN(C)S(=O)(=O)c1cccc(-c2c(Cl)cc(Nc3n[nH]c(N)n3)cc2C(F)(F)F)c1 [Compound 198, 4′-(5-amino-1H-1,2,4-triazol-3-ylamino)-2′-chloro-N,N-dimethyl-6′-(trifluoromethyl)biphenyl-3-sulfonamide] | 21.3 µM | 0.268 µM
23 | CS(=O)(=O)NCc1cccc(-c2c(Cl)cc(Nc3n[nH]c(N)n3)cc2C(F)(F)F)c1 [Compound 199, N-((4′-(5-amino-1H-1,2,4-triazol-3-ylamino)-2′-chloro-6′-(trifluoromethyl)biphenyl-3-yl)methyl)methanesulfonamide] | 31.8 µM | 0.196 µM
24 | CC(C)(C)OC(=O)c1ccc(-c2c(Cl)cc(Nc3n[nH]c(N)n3)cc2C(F)(F)F)cc1 [Compound 200, tert-butyl 4′-(5-amino-1H-1,2,4-triazol-3-ylamino)-2′-chloro-6′-(trifluoromethyl)biphenyl-4-carboxylate] | > 10 µM | 0.574 µM
25 | Nc1nc(Nc2cc(Cl)c(-c3ccccc3)c(C(F)(F)F)c2)n[nH]1 [Compound 201, N3-(2-chloro-6-(trifluoromethyl)biphenyl-4-yl)-1H-1,2,4-triazole-3,5-diamine 2,2,2-trifluoroacetate] | 58.3 µM | 0.405 µM
26 | Nc1nc(Nc2cc(Cl)c(-c3ccc(C(=O)O)cc3)c(C(F)(F)F)c2)n[nH]1 [Compound 202, 4′-(5-amino-1H-1,2,4-triazol-3-ylamino)-2′-chloro-6′-(trifluoromethyl)biphenyl-4-carboxylic acid 2,2,2-trifluoroacetate] | > 10 µM | 1.25 µM
27 | COc1ccc(-c2c(Cl)cc(Nc3n[nH]c(N)n3)cc2C(F)(F)F)cc1S(=O)(=O)N1CCCC1 [Compound 203, N3-(2-chloro-4′-methoxy-3′-(pyrrolidin-1-ylsulfonyl)-6-(trifluoromethyl)biphenyl-4-yl)-1H-] | 10.6 µM | 0.008 µM
28 | COc1ccc(-c2c(Cl)cc(Nc3n[nH]c(N)n3)cc2C(F)(F)F)cc1S(=O)(=O)NC1CCNCC1 [Compound 204, 4′-(5-amino-1H-1,2,4-triazol-3-ylamino)-2′-chloro-4-methoxy-N-(piperidin-4-yl)-6′-(trifluoromethyl)biphenyl-3-sulfonamide hydrochloride] | > 10 µM | 0.011 µM
29 | CC1(NS(=O)(=O)c2ccc(-c3c(Cl)cc(Nc4n[nH]c(N)n4)cc3C(F)(F)F)cc2)CN(C(=O)OC(C)(C)C)C1 [Compound 205, tert-butyl 3-(4′-(5-amino-1H-1,2,4-triazol-3-ylamino)-2′-chloro-6′-(trifluoromethyl)biphenyl-4-ylsulfonamido)-3-methylazetidine-1-carboxylate] | 9.26 µM | 0.011 µM
